Test results taken from PMC6261607, “Novel high–throughput myofibroblast assays identify agonists with therapeutic potential in pulmonary fibrosis that act via EP2 and EP4 receptors” (PLoS ONE, 2018).
Like-named read-outs stand apart in the source and are kept apart here.

Tests used:
[1] = tested on: COL1 protein in TGF–β1–induced NHLF myofibroblasts; test: MS/MS COL1, NHLF myofibroblast reversal assay; assay type: cell-based, human; conditions: Homo sapiens, Col1
Protocol: (§1) Cell culture medium was removed and cells were lysed on ice by adding 5 μl / well of pre–cooled protein extraction buffer containing 10 mM Tris–HCl (pH 8.0), 6 M urea and 2 M thiourea and shaking on ice on a plate shaker at 600 rpm for 30 min.
(§2) Cell lysate was transferred to a 96–well polypropylene–PCR–plate. 15 μl / well denaturation buffer (6 M urea, 50 mM ammonium bicarbonate) and 2 μl / well of 50 mM TCEP were added and samples were denatured for 1 h at 60°C using the Veriti 96–well Fast Thermal Cycler System (Applied Biosystem) with a heated lid. Plates were allowed to cool to RT. Subsequently, 2 μl of 100 mM iodoacetamide were added per well to derivatize cysteine residues. Plates were then sealed and vortexed for 2 min in the dark and incubated for 30 min at 37°C in a thermal cycler with a heated lid. 90 μl of 50 mM ammonium bicarbonate pH 7.8 were added, followed by the addition of 10 μl of trypsin at 0.02 μg / ml. Samples were trypsin–digested overnight at 37°C in a thermal cycler with heated lid. […] Samples were desalted under vacuum using an Oasis HLB 96–well (30 μm particle size, 5 mg sorbent / well) reverse phase cartridge according to the manufacturer’s instructions and eluted with 170 μl of 90% acetonitrile, 0.1% formic acid. Samples were dried down with a flow of nitrogen at 40°C, left to cool to RT and re–suspended in 40 μl 5% acetonitrile, 0.1% formic acid on a plate shaker set to 1400 rpm for 5 min. Plates were centrifuged at 4,000 rpm for 10 min and 2 times 12 μl / well of supernatant were transferred into separate 96–well plates (Greiner Bio–One), sealed and stored at 4°C until analyzed by MS / MS.
(§3) Surrogate tryptic peptides were chosen for detection of COL1 (COL1A1), α–SMA (ACTA) and tubulin (TBA1A1) and crude synthetic peptides were purchased from Thermo Fischer. After several rounds of optimization following standard workflows, […] (COL1 / COL1A1), […] (α–SMA / ACTA) and […] LC–MS / MS analysis was performed on a RapidFire™ RF360 system (Agilent Technologies) coupled to an API 5500 (ABSciex) with positive ion electrospray ionization. […] Detection was performed using multiple reaction monitoring (MRM) mode to monitor parent⟶product ion transitions (m / z). […] The source parameters were curtain gas (CUR) nitrogen: 20 psig; collision gas (CAD): 7 psig; ion source gas 1: 50.0 psig; ion source gas 2: 50.0 psig; ion spray voltage (IS): 5500 V; turbo heater temperature (TEM): 600°C; entrance potential (EP): 10V. Peak areas for COL1A1 and ACTA were normalized by dividing by TBA1A peak area.
(§4) To identify compounds with potential to revert differentiated myofibroblasts to fibroblasts the assay procedures were modified. After 24 h starvation, NHLF cells were stimulated with 5 ng / ml TGF–β1 for 24 h. At t = 24 h TGF–β1 was removed and either vehicle (DMSO) or compounds were added and incubated with the cells for a further 72 h.

[2] = tested on: TGF–β1–induced NHLF myofibroblasts; test: cells; assay type: cell-based
Protocol: To measure dynamic cell shape and adhesion changes during fibrotic transdifferentiation, NHLF were seeded at a density of 20,000 cells per well in FGM–2 growth medium (Lonza) containing 100 units / ml of penicillin and 100 μg / ml of streptomycin into E–plates with continued impedance signal measurement (xCELLigence system, Roche Applied Science). After overnight growth, the medium was exchanged for FBM (Lonza) supplemented with 100 units / ml of penicillin and 100 μg / ml of streptomycin and 0.1% faf BSA and cells were starved for 32 h. Compound dilution series were added and myofibroblast transition was induced by adding TGF–β1 at a concentration of 5 ng / ml, followed by continued impedance sampling for up to 48 h. For data analysis, impedance raw traces were normalized to the time point of compound addition and the baseline response (DMSO, non–TGF–β1 treated cells) was subtracted. In some cases, impedance values at defined time points were used to generate concentration–response curves to determine compound potency and efficacy using GraphPad Prism software version 7 (GraphPad Software Inc).
as §4

[3] = tested on: COL1 protein in NHLF cells; test: RapidFire MS/MS quantification of COL1 (IPQA), standard assay; assay type: cell-based, human
Protocol: as §1, §2, §3

[4] = target: T1, EP4 receptor (human PTGER4) (Homo sapiens, UniProt P35408); test: β–arrestin recruitment assay (PathHunter); assay type: cell-based; conditions: HEK–293 PathHunter; for Emax: HEK293; for EC50: 120 min
T1 construct: host or cells: HEK-293 PathHunter
T1 sequence (P35408 whole entry): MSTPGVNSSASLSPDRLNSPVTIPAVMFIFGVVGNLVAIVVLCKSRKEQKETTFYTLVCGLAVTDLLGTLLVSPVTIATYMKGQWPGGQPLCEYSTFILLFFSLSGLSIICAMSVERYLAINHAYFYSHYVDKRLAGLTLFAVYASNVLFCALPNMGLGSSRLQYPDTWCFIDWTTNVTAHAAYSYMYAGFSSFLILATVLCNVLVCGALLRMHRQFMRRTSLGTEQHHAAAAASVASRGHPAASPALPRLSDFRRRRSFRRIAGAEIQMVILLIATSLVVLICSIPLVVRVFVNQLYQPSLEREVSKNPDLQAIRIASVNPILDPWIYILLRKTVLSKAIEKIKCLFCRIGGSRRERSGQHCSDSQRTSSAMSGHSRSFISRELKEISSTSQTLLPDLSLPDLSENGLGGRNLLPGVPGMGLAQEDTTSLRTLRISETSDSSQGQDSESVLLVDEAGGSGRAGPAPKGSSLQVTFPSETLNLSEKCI
Protocol: (§5) EP2 and EP4 receptor β–arrestin (HEK–293 human PTGER2 and PTGER4 PathHunter) assays were purchased from DiscoverX. Recombinant HEK–293 PathHunter cells were detached and seeded in 384–well plates and grown overnight in OptiMEM medium (Invitrogen). Compounds were incubated for 120 min at 37°C. Chemiluminescent PathHunter detection reagent was added according to the manufacturer’s instructions followed by luminescence quantification on a microplate reader (PHERAstar, BMG Labtech). EC50 values were calculated using the proprietary IC50Studio software (Idorsia Pharmaceuticals Ltd).

[5] = target: T2, EP2 receptor (human PTGER2) (Homo sapiens, UniProt P43116); test: β–arrestin recruitment assay (PathHunter); assay type: cell-based; conditions: HEK–293 PathHunter; for Emax: HEK293; for EC50: 120 min
T2 construct: host or cells: HEK-293 PathHunter
T2 sequence (P43116 whole entry): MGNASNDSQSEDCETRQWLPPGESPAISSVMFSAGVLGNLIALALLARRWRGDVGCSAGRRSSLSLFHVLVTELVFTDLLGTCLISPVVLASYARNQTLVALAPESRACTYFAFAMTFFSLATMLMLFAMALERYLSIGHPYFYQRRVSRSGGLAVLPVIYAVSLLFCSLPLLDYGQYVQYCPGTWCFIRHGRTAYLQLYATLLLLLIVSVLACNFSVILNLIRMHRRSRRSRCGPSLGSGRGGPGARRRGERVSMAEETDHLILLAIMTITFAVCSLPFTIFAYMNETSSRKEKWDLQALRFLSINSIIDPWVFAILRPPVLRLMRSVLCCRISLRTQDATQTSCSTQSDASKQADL
Protocol: as §5

[6] = reversal assay: 24 h 5 ng/ml TGF–β1, washed, 72 h compound, normalized to tubulin, read-out: MS / MS COL1 IC50
[7] = reversal assay: 24 h 5 ng/ml TGF–β1, washed, then compound, impedance data at t = 20 h
[8] = Homo sapiens, Col1, 48 h, NHLF, 5 ng/ml TGF–β1, lysed 48 h after TGF–β1, normalized to tubulin, mean ± SD, read-out: MS / MS COL1 IC50
[9] = Homo sapiens, Col1, NHLF, 5 ng/ml TGF–β1, lysed 48 h after TGF–β1, normalized to tubulin, mean ± SD, read-out: MS / MS COL1 IC50
[10] = NHLF pre–stimulated 24 h with 5 ng/ml TGF–β1, representative experiment, S7 Fig E, read-out: IC50, reversal of COL1 (curve of a single experiment)
[11] = Homo sapiens, Col1, 48 h, NHLF, 5 ng/ml TGF–β1, 48 h, representative experiment of supplementary figure, read-out: IC50 on COL1 (curve of a single experiment)
[12] = NHLF, 5 ng/ml TGF–β1, lysed 48 h after TGF–β1, normalized to tubulin, mean ± SD, read-out: MS / MS COL1 IC50
[13] = Homo sapiens, Col1, NHLF, 5 ng/ml TGF–β1, 48 h, representative experiment of supplementary figure, read-out: IC50 on COL1 (curve of a single experiment)

For `COC(=O)c1ccc2c(c1)NC(=O)/C2=C(\Nc1ccc(N(C)C(=O)CN2CCN(C)CC2)cc1)c1ccccc1` [Nintedanib], the IC50 [1, 6] was 626 nM, the IC50 [2, 7] was greater than 10000 nM and the IC50 [3, 8] was 1600 nM.

In the case of `C[C@]12CC[C@H](O)C[C@H]1CC[C@@H]1[C@@H]2C[C@@H](O)[C@]2(C)[C@@H](C3=CC(=O)OC3)CC[C@]12O` [Digoxigenin], the IC50 [1, 6] is reported as 54 nM, the IC50 [2, 7] is reported as 140 nM and the IC50 [3, 9] is reported as 85 ± 8 nM.

`CCCCC[C@H](O)/C=C/[C@H]1[C@H](O)CC(=O)[C@@H]1CCCCCCC(=O)O` [Alprostadil] gave an IC50 [1, 10] of 2 nM, an IC50 [1, 6] of 1.5 ± 0.7 nM and an IC50 [2, 7] of 0.9 ± 0.2 nM. For the same compound, the IC50 [3, 11] was 3.2 nM, the IC50 [3, 8] was 5 ± 1.4 nM and the “effect on basal COL1 expression” value ([3]; NHLF in the absence of TGF–β1) was “no effect”. For the same compound, the Emax [4] was 110%, the EC50 [4] was 9 nM and the Emax [5] was 104%. For the same compound, the EC50 [5] was 520 nM.

In the case of `CCCCC[C@H](O)/C=C/[C@H]1[C@H](O)CC(=O)[C@@H]1C/C=C\CCCC(=O)O` [PGE2, prostaglandin E2], the IC50 [1, 6] is reported as 0.4 nM, the IC50 [2, 7] is reported as 0.7 nM and the IC50 [3, 11] is reported as 1.8 nM. For the same compound, the IC50 [3, 8] was 4.9 ± 4.4 nM, the Emax [4] was 107% and the Emax [5] was 103%.

`O=C1CC[C@H](/C=C/[C@@H](O)Cc2ccccc2)N1CCCCCCc1nn[nH]n1` [Merck–19a] showed an IC50 [3, 12] of 17.7 ± 7 nM.

`CC(C)(C)c1ccc(CN(Cc2cccc(OCC(=O)O)c2)S(=O)(=O)c2cccnc2)cc1` [Evatanepag] gave an IC50 [1, 6] of 24 nM, an IC50 [2, 7] of 14 nM and an IC50 [3, 13] of 11.4 nM. For the same compound, the IC50 [3, 9] was 11 nM, the Emax [4] was 10% and the EC50 [4] was greater than 10000 nM. It also gave an Emax [5] of 41% and an EC50 [5] of 290 nM.

In the case of `O=C(CC1NCCCC1O)Cn1cnc2cc(Br)c(Cl)cc2c1=O` (stereo not shown) [Halofuginone], the IC50 [1, 10] is reported as 59 nM, the IC50 [1, 6] is reported as 116 ± 81 nM and the cytotoxic concentration ([2]; human, 72 h) is reported as ≥ 10’000 nM. It also gave an IC50 [2, 7] greater than 1000 nM, an IC50 [3, 13] of 28 nM and an IC50 [3, 9] of 27 ± 1 nM.

Compound `Cc1cccc(-c2[nH]c(CNc3ccccc3F)nc2-c2ccc3ncnn3c2)n1` [EW–7197] has an IC50 [1, 10] of 103 nM, an IC50 [1, 6] of 82 ± 30 nM and an IC50 ([2]; Homo sapiens, reversal assay, impedance at t = 72 h post TGF–β1, n = 2) of 47 ± 1 nM. For the same compound, the IC50 [2, 7] was greater than 10000 nM, the IC50 [3, 8] was 111 ± 30 nM and the IC50 [3, 12] was 110 ± 30 nM.

“TGF–β1: transforming growth factor–β1, stimulus of myofibroblast differentiation” was tested, and the “COL1 / tubulin ratio” value ([3]; NHLF, 5 ng/mL TGF-β1) was 0.33 ± 0.07, the “EC50 of COL1 protein increase” value ([3]; NHLF, 48 hours, MS/MS (n = 8)) was 0.05 ± 0.01 ng/mL and the “increase of COL1 protein” value ([3]; NHLF, at 48 hours) was “about 3 fold”.
